Measurements from the NIST ThermoML archive (doi:10.1016/j.tca.2018.04.001).
Numbers after ± are expanded uncertainties.

Key:
[1] = DSC
[2] = Molar enthalpy of transition or fusion; settings: DSC

CCCCCCCCCCCCCCCCCCCCC [heneicosane]
Triple point temperature ([1]; Crystal 1): 313.65 ± 1 K | Triple point temperature ([1]; Crystal 2): 305.05 ± 1 K | Molar enthalpy of transition or fusion ([2]; Crystal 1): 9.93 ± 1 kcal/mol | Molar enthalpy of transition or fusion ([2]; Crystal 2): 3.42 ± 0.359 kcal/mol
